Like-named read-outs stand apart in the source and are kept apart here.

In the assay the test system is male Hartley guinea pigs actively sensitized with egg-white albumin. In words: Antiallergic Test due to Antigen-Induced Immediate Type Airway Reaction and Delayed Type Airway Reaction. The assay is classed as in vivo. To be noted: Cavia porcellus, po, 10 mg/kg orally once one hour before induction (prednisolone 10 mg/kg orally twice, 16 hours and 2 hours before). As to the method:
Using an ultrasonic nebulizer (NE-U12, manufactured by OMRON Corporation), male Hartley guinea pigs (aged six weeks) were actively sensitized by consecutive 8-day inhalation of a 1 wt % physiological saline of egg-white albumin for 10 minutes a day. After one week passed since the final sensitization, an asthmatic disease state was induced by inhalation of a 2 wt % physiological saline of egg-white albumin for 5 minutes in the same manner. To inhibit the synthesis of endogenous steroid, metyrapone (10 mg/kg) was intravenously administered at 24 hours and one hour before the induction. To inhibit anaphylactic shock, pyrilamine (10 mg/kg) was intraperitoneally administered 30 minutes before inducing the asthmatic reaction.
After inducing the asthmatic reaction, the airway resistance (specific airway resistance Raw) was measured for 1 minute before inducing the asthmatic reaction, and 1 minute, 2 hours, 4 hours, 5 hours, 6 hours, 7 hours, 8 hours, and 23-24 hours after inducing the asthmatic reaction, using an airway resistance measuring apparatus (Pulmos-I, manufactured by M.I.P.S.). An average value of the airway resistance was determined, and an airway resistance increase ratio with respect to the value of the airway resistance before the induction was calculated by the following Equation 1.
Each of the test substances (10 mg/kg) listed in Table 1 was suspended in an aqueous 0.5% methyl cellulose solution, and the suspension was orally administered once one hour before inducing the asthmatic reaction. A positive control substance (prednisolone) was orally administered twice at a dosage of 10 mg/kg 16 hours and 2 hours before inducing the asthmatic reaction. The test was carried out on 8 animals per group.
According to this test procedure, a two-phase increase in airway resistance was observed immediately after inducing the asthmatic reaction and after 4-8 hours passed since inducing the asthmatic reaction. In the present invention, the former increase in airway resistance is referred to as the immediate type asthmatic reaction, while the latter increase in airway resistance is referred to as the delayed type asthmatic reaction. With respect to the evaluation of the drug, for the immediate type asthmatic reaction, the inhibition percentage with respect to the asthmatic reaction inhibiting medium administration group (referring to the group wherein a test drug is not administered after inducing the asthmatic reaction, hereinafter merely referred to as the “medium administration group”) was determined by Equation 2 using the airway resistance increase ratio after one minute gas passed since the induction as an index.
For the delayed type asthmatic reaction, the inhibition percentage with respect to the medium administration group was determined by the following Equation 3 using the area under the curve (AUC4-8) of the airway resistance increase ratio up to 4-8 hours after inducing the asthmatic reaction as an index. As an example, the relationship between the airway resistance increase ratio up to 4-8 hours after inducing the asthmatic reaction of the delayed type asthmatic reaction and time in the medium administration group, the prednisolone administration group, and the compound (216) administration group is shown in FIG. 1. As used herein, the area under the curve showing the relationship between the airway resistance increase ratio and time is (AUC4-8)
Airway resistance increase ratio (%)=(airway resistance after inducing the asthmatic airway resistance−airway resistance before inducing the asthmatic reaction)/(airway resistance before inducing the asthmatic reaction)×100
Inhibition (%)=(1−airway resistance increase ratio after one minute has passed since inducing the asthmatic reaction of the test substance administration group/airway resistance increase ratio after one minute has passed since inducing the asthmatic reaction of the medium administration group)×100 […]

The mark [1] stands for this setting: 1 min, airway resistance increase ratio one minute after induction vs medium administration group, read-out: Inhibition (%) against immediate type allergy.
[2] abbreviates: AUC4-8 of airway resistance increase ratio 4-8 hours after induction vs medium administration group, read-out: Inhibition (%) against delayed type allergy.

`CCCCCCOc1c(O)c2cc(OCC(O)CO)ccc2oc1=O` (stereo not shown) [Compound (147), 3-hexyloxy-4-hydroxy-6-(2,3-dihydroxypropyloxy)-2H-1-benzopyran-2-one]: the inhibition in vivo at 10 mg/kg reads like this: under setting [1], 19.1%; under setting [2], 59.5%.

As to `CCCCCCOc1c(O)c2c(OCCCCC(=O)O)cccc2oc1=O` [Compound (99), 3-hexyloxy-4-hydroxy-5-(4-hydroxycarbonylbutoxy)-2H-1-benzopyran-2-one], the inhibition in vivo at 10 mg/kg was found to be 14.6% under setting [1] and 61.9% under setting [2].

In the case of `CCCCCCCCOc1c(O)c2ccc(OCC(=O)O)cc2oc1=O` [Compound (273), 3-octyloxy-4-hydroxy-7-hydroxycarbonylmethoxy-2H-1-benzopyran-2-one], the inhibition in vivo at 10 mg/kg reads like this: under setting [1], 32.9%; under setting [2], 64.5%.

Regarding `CCCCCCOc1c(O)c2cccc(OCC(O)CO)c2oc1=O` (stereo not shown) [Compound (349), 3-hexyloxy-4-hydroxy-8-(2,3-dihydroxypropyloxy)-2H-1-benzopyran-2-one], the inhibition in vivo at 10 mg/kg reads like this: under setting [1], 12.5%; under setting [2], 57.2%.

For the compound `CCCCCCOc1c(O)c2cc(OCCO)ccc2oc1=O` [Compound (109), 3-hexyloxy-4-hydroxy-6-(2-hydroxyethoxy)-2H-1-benzopyran-2-one], the inhibition in vivo at 10 mg/kg is, setting by setting: under setting [1], 14%; under setting [2], 66.8%.

The values are drawn from patent US6670391B2, “Benzopyran derivative and antiallergic agent” (Dainippon Ink and Chemicals, Inc., priority 2001, dated 2003).
